In one experiment the target is T1, AuroraA-TPX2 (Homo sapiens, UniProt O14965).
T1 construct: 20 μL of AuroraA-TPX2 KD GST for a final volume of about 41 μL; GST
T1 sequence (O14965 133-383 limits assumed): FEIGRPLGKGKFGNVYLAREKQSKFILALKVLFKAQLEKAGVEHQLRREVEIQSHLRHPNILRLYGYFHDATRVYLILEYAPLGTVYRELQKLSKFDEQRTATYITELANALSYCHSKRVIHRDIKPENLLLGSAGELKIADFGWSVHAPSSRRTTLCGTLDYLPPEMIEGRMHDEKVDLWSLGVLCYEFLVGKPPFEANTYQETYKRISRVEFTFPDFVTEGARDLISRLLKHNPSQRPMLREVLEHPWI
T1 sequence (Q9ULW0 1-43 partner limits assumed): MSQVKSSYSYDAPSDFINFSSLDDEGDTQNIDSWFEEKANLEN
Description: AuroraA-TPX2 Homogeneous Time Resolved Fluorescent (HTRF) kinase assay. Format: biochemical. Particulars: average; read-out: AurA_IC50_IP (uM Avg). Summed up:
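HTRF read-out (Eu 615 nm to APC 655 nm) of phosphorylated biotin-PLK, detected with 0.02 nM europium anti-phosphoPLK antibody and 0.0005 mg/mL SA-APC after overnight equilibration.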

The next experiment concerns the target T2, AuroraB (Homo sapiens, UniProt Q96GD4).
T2 construct: 20 μL of AuroraB FL H is for a final volume of 41 μL; His
Description: AuroraB Homogeneous Time Resolved Fluorescent (HTRF) kinase assay. The class given is biochemical. Particulars: average; read-out: AurB_IC50_IP (uM Avg). Summed up:
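Full-length His-tagged kinase phosphorylates biotinylated Histone H3 (0.1 μM final) with ATP in pH 7.5 HEPES containing MgCl, MnCl, DTT and BSA for about 90 min. EDTA-containing detection mix with SA-APC and Eu-anti-phosphoHistone H3 then equilibrated about 60 min; HTRF read with 320 nm excitation, emissions 615/655 nm.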

Another experiment relates to HCT116 xenografts. Description: HCT116 xenograft model (human colon carcinoma), tumor growth inhibition. The class given is in vivo. The conditions noted are these: p.o., athymic nude mice. As to the method: Compounds of the present invention were evaluated in HCT116 xenografts, a human colon carcinoma model. […] These cells were grown as subcutaneous xenografts in female HSD (Harlan Sprague Dawley) athymic nude mice. Mice were implanted subcutaneously with 2×10^6 cells in matrigel on day 0. Treatment was initiated on day 10 with compounds of the invention at the indicated dosage p.o for 2 consecutive-days per week (intermittent schedule, such as 2 days on-5 days off) or 7-days (continuous schedule) per week, for a selected number of weeks. For example, in one study, animals were dosed with selected compound samples BID on an intermittent dosing paradigm of two days on and then 5 days off per week, for four weeks (four dosing cycles) at 15, 7.5, and 3.75 mg/kg. Tumor growth inhibition and body weights were measured throughout the study and compared to the vehicle control group. All groups were provided nutritional supplements on a daily basis throughout the study to maintain body weight. Terminal neutrophil counts were taken at the end of this study. Measures were made by ANOVA followed by Scheffe post hoc test using StatView software v5.0.1.
10 Flasks containing a total of 7.68×10^8 HCT116 tumor cells were harvested for tumor cell implantation. HCT 116 cells were re-suspended to a cell concentration of about 2×10^7 cells/ml in serum-free McCoys 5A media+50% matrigel. Cell viability was measured to be about 99.3%.
Female Athymic Nude mice approximately 14 weeks of age (Harlan Sprague Dawley) were used for the experiment. Mice were housed five per filter-capped cage in sterile housing in an environmentally controlled room (temperature 23±2° C., relative humidity 50±20%) on a 12-hr light/dark cycle. […] On Day 9, tumor-bearing mice were measured and randomized into five groups (n=10). […] During the dosing period, mouse tumor volumes were measured with a digital caliper and weighed twice per week. Tumor volumes were calculated as follows: Tumor Volume (mm^3) [(W^2×L)/2] where width (W) is defined as the smaller of the 2 measurements and length (L) is defined as the larger of the 2 measurements.

T2 sequence (Q96GD4 whole entry): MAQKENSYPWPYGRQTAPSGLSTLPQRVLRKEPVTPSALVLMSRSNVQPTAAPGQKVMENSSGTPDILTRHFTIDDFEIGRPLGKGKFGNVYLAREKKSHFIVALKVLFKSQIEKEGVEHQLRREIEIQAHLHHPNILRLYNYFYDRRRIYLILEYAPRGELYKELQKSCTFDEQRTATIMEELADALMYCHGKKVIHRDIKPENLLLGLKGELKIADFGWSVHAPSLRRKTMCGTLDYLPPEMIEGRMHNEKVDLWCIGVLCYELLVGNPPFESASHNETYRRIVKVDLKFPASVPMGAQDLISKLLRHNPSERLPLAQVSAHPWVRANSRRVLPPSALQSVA

Take `COc1cnc2c(Oc3ccc(Nc4nnc(-c5ccc(Cl)cc5)c5ccccc45)cc3)ccnc2c1` [Example 160, 4-(4-chlorophenyl)-N-(4-((7-(methyloxy)-1,5-naphthyridin-4-yl)oxy)phenyl)-1-phthalazinamine]: the values for the IC50 on AuroraA-TPX2 and at AuroraB were 0.007 µM and 0.003 µM, respectively. Further, the “inhibition of tumor growth” value with HCT116 xenografts (3.75 mg/kg, 2-day dosing scheduling QD) was about 86%.

With `COc1cnc2c(Sc3ccc(Nc4nnc(-c5ccccc5)c5ccccc45)cc3)ccnc2c1` [Example 207, N-(4-((7-(methyloxy)-1,5-naphthyridin-4-yl)thio)phenyl)-4-phenyl-1-phthalazinamine], the IC50 on AuroraA-TPX2 is 0.06 µM; on AuroraB, 0.009 µM. The “inhibition of tumor growth” value in the experiment on HCT116 xenografts (5.0 mg/kg, 2-day dosing scheduling QD) is on record as about 67%.

For the compound `COc1cnc2c(Oc3ccc(Nc4nnc(-c5ccc6c(c5)OCO6)c5ccccc45)cc3)ccnc2c1` [Example 165, 4-(1,3-benzodioxol-5-yl)-N-(4-((7-(methyloxy)-1,5-naphthyridin-4-yl)oxy)phenyl)-1-phthalazinamine], the results for the IC50 at AuroraA-TPX2 and at AuroraB were 0.009 µM and 0.007 µM, respectively. The “inhibition of tumor growth” value with HCT116 xenografts (2.5 mg/kg, 2-day dosing scheduling BID) was about 63%.

The values above are taken from patent US8557816B2, “Aurora kinase modulators and method of use” (Amgen Inc., priority 2007, dated 2013).
